This passage reports IC50 and AC50 results from ChEMBL document CHEMBL1201862, “PubChem BioAssay data set” (2004).

Activity calls are given as the source filed them.

In experiment [1] the target is Induced myeloid leukemia cell differentiation protein Mcl-1 (Homo sapiens, UniProt Q07820). Format: functional.
Experiment [2] is described as follows: MDA-MB-231 cell growth inhibition, dose response, cytotoxicity control for RAD54 inhibitor project, CellTiter-Glo luminescence, cherry-pick (AID 651692). The format is functional, cell-based.
Another experiment addresses T1, Protein skinhead-1 (Caenorhabditis elegans, UniProt P34707).
T1 sequence (P34707 whole entry): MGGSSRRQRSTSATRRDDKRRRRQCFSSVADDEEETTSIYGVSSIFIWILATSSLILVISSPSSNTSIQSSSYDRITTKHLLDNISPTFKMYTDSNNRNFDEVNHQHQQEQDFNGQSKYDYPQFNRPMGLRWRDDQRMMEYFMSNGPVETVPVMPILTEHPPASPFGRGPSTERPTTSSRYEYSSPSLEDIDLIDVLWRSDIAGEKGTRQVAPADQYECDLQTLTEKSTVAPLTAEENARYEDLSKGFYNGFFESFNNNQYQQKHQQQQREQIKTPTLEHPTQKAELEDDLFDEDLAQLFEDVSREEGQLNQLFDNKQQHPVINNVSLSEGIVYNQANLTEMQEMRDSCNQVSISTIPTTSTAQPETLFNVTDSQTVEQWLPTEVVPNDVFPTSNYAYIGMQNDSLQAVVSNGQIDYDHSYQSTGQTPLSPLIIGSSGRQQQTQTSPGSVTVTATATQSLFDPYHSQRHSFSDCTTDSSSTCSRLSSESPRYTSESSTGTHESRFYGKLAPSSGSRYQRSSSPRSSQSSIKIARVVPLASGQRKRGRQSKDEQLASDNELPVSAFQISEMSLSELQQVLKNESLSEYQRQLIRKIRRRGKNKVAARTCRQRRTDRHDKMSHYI
Format: functional.

Experiment [3] concerns the target T2, Sentrin-specific protease 8 (Homo sapiens, UniProt Q96LD8).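 Further: luminescence read-out of SENP8 inhibition, dose-response confirmation following an ultra-high-throughput screen.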
T2 sequence (Q96LD8 whole entry): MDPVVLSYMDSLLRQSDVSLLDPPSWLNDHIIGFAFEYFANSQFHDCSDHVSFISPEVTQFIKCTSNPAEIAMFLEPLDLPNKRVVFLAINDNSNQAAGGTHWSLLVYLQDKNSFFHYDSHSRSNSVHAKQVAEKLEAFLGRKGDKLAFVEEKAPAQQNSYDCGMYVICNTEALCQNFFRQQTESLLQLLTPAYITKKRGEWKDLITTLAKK
The format is functional.

The target of experiment [4] is T3, Dual specificity protein phosphatase 6 (Rattus norvegicus, UniProt Q64346).
T3 sequence (Q64346 whole entry): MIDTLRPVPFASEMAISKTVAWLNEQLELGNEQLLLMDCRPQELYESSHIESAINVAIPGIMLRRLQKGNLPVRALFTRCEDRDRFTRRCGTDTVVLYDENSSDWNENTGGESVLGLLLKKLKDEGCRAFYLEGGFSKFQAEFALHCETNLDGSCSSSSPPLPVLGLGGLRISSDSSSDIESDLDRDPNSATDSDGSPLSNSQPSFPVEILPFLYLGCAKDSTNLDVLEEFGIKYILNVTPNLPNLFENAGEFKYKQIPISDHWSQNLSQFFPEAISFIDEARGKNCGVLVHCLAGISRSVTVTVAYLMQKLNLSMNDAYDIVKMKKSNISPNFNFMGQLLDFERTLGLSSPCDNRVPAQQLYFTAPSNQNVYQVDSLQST
As to the kind of experiment: MKP-3 phosphatase inhibitors, primary screen, biochemical, rat enzyme, in vitro (AID 425).

A further experiment concerns the target T4, Caspase-3 (Homo sapiens, UniProt P42574).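 Further: Dose-response selectivity test against caspase-3 for candidate inhibitors of sentrin-specific proteases (SENPs).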
T4 sequence (P42574 whole entry): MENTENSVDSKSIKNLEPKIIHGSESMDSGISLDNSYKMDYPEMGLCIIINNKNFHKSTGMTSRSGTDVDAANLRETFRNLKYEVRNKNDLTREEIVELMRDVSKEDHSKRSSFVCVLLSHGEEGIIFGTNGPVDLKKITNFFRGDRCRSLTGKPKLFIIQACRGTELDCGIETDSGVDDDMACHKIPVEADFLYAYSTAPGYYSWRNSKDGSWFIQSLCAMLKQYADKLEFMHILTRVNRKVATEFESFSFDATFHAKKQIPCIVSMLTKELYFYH
Format: functional.

Experiment [5] addresses Photoreceptor-specific nuclear receptor (Homo sapiens, UniProt Q9Y5X4). Format: functional.
Experiment [6] deals with T5, Sentrin-specific protease 7 (Homo sapiens, UniProt Q9BQF6).
T5 sequence (Q9BQF6 whole entry): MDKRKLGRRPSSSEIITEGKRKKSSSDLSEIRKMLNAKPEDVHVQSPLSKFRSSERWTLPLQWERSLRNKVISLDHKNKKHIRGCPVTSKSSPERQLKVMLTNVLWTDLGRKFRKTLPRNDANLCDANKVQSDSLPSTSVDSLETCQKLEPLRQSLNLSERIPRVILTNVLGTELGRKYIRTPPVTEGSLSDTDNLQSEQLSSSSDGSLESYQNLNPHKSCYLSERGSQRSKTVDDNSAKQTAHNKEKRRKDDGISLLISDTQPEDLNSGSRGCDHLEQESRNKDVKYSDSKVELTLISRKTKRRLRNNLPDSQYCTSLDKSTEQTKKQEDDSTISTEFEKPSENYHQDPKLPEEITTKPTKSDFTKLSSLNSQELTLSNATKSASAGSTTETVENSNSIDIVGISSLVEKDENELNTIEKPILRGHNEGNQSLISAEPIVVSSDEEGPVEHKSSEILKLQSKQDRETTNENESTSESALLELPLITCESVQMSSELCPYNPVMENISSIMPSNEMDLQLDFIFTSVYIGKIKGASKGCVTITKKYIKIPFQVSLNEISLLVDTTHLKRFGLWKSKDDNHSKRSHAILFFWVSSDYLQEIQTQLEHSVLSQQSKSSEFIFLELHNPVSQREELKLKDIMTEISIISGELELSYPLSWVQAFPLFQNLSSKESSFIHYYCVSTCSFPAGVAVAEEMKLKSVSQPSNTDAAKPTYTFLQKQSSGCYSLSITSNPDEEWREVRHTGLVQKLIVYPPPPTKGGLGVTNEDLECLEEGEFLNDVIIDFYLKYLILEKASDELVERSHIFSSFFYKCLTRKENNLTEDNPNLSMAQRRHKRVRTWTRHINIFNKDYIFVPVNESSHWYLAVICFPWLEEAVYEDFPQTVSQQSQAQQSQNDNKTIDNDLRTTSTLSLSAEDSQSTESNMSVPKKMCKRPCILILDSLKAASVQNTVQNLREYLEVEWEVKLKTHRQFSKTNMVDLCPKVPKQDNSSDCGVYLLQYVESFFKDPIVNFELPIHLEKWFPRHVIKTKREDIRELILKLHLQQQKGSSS
The format is functional.

Experiment [7] has as its target Tyrosyl-DNA phosphodiesterase 2 (Homo sapiens, UniProt O95551). Description: human TDP2 enzyme inhibitors, dose response, biochemical, epi absorbance, IC50 (AID 743297).

Sequence of Tyrosyl-DNA phosphodiesterase 2 (O95551 whole entry): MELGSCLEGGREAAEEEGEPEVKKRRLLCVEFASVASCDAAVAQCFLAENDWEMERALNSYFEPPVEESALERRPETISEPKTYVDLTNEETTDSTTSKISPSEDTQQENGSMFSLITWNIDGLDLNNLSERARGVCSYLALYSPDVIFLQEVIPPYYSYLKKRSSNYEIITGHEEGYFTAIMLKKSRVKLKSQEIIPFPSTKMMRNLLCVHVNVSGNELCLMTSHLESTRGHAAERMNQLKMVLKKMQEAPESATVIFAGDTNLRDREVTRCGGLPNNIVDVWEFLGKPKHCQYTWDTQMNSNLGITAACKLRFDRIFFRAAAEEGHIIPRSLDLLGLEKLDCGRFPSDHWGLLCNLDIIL
Sequence of Photoreceptor-specific nuclear receptor (Q9Y5X4 whole entry): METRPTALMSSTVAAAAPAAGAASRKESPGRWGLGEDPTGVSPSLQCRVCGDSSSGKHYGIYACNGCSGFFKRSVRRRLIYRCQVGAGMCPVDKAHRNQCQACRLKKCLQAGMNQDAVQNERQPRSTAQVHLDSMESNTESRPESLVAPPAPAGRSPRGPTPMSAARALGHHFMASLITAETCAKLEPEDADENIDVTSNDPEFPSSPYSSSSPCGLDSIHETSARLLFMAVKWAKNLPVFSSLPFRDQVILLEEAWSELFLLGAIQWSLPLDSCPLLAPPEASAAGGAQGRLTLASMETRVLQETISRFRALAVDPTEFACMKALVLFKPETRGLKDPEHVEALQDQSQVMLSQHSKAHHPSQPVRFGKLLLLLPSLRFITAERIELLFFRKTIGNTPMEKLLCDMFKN
Sequence of Induced myeloid leukemia cell differentiation protein Mcl-1 (Q07820 whole entry): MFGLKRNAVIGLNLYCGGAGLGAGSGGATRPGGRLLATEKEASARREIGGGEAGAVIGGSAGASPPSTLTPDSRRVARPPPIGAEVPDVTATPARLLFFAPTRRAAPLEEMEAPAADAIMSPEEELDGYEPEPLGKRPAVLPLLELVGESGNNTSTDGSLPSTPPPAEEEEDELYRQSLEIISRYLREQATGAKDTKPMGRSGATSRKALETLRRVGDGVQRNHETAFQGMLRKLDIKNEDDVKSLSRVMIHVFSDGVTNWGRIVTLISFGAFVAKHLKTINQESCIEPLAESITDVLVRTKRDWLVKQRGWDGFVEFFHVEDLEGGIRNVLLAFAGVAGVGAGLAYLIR

As to `COc1cc(-c2nnc(SCc3cc(=O)oc4cc(O)c(O)cc34)o2)cc(OC)c1OC`, the IC50 – broadly, the concentration that gives 50% inhibition – in experiment [1] was 3.77 µM (active).
Turning to `CCOC(=O)c1c(-c2ccc(-c3ccccc3)cc2)csc1NC(=O)CNCCN(C)C`, in experiment [2], the half-maximal activity concentration (AC50) (commonly the concentration giving half of the maximal activity seen) is 18.4 µM (active). Also, the IC50 on Protein skinhead-1 is 12.5 µM (active).
Take `N#Cc1c(NC(=O)c2ccc(Br)o2)n(-c2ccccc2)c2nc3ccccc3nc12`: the half-inhibitory concentration (IC50) in [3] was 4.55 µM (active); in [4], 96.9 µM (active); on Caspase-3, 29.6 µM (active); in experiment [5] it was > 39.8 µM (not active); in [6], 3.69 µM (active); in [7], 29.1 µM (inactive).
